Test results: US5185363A, “Urea based lipoxygenase inhibiting compounds” (Abbott Laboratories, priority 1991, dated 1993)

What was measured:
[1] = biological target: T1, 5-Lipoxygenase from RBL-1 20,000 xg Supernatant (Rattus norvegicus, UniProt P12527); test: In vitro inhibition of 5-lipoxygenase from RBL-1 20,000 xg supernatant; format: biochemical; settings: radiolabeled arachidonic acid
T1 construct: supermatant from 1.5 million homogenized RBL-1 cells; endogenous in cells; host or cells: RBL-1 cells, 20,000 x g supernatant of homogenate
T1 sequence (P12527 1-673): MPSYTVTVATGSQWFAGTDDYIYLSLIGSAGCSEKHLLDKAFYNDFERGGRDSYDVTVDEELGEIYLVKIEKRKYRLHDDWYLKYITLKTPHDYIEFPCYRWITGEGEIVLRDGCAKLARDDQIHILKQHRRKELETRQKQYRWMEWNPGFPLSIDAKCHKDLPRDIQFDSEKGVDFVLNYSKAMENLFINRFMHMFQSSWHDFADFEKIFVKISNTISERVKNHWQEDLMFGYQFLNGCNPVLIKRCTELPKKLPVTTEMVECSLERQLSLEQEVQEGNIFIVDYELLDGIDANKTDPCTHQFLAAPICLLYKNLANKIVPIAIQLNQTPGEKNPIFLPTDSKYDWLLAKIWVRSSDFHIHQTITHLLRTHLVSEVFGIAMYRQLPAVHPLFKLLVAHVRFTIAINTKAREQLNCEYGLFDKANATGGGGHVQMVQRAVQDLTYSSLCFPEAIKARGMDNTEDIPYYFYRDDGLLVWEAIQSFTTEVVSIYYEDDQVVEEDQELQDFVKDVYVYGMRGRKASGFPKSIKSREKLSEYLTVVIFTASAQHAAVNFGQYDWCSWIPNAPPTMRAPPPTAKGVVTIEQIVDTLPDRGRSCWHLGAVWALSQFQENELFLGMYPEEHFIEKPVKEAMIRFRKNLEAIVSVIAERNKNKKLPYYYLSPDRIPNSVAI
Experimental: Assays to determine 5-lipoxygenase inhibitory activity were performed in […] incubations containing the 20,000xg supermatant from 1.5 million homogenized RBL-1 cells and various concentrations of the test compound. Reactions were initiated by addition of radiolabeled arachidonic acid and terminated by acidification and ether extraction. Reaction products were separated from nonconverted substrate by thin layer chromatography and measured by liquid scintillation spectroscopy. All incubations are performed in triplicate. Inhibition of 5-lipoxygenase activity was calculated as the ratio of the amount of product formed in the presence and absence of inhibitor. […] (Dyer, R.D.; Haviv, F.; Hanel, A. M.; Bornemier, D. A.; Carter, G. W. Fed. Proc., Fed. Am. Soc. Exp. Biol. 1984, 43, 1462A).

leukotriene biosynthesis = test: In vivo inhibition of leukotriene biosynthesis, rat peritoneal anaphylaxis model; settings: 1 h, 200 μmol/kg oral dose, gavage one hour prior to antigen challenge, read-out: Percent Inhibition
Experimental: Inhibition of the biosynthesis of leukotrienes in vivo after oral administration of compound was determined using a rat peritoneal anaphylaxis model in a similar manner as that described by Young and coworkers (Young, P. R.; Dyer, R. D.; Carter, G. W. Fed. Proc., Fed. Am. Soc. Exp. Biol. 1985, 44, 1185). In this model rats were injected intraperitoneally (ip) with rabbit antibody to bovine serum albumin (BSA) and three hours later injected ip with BSA to induce an antgen-antibody response. Rats were sacrificed 15 minutes after this challenge and the peritoneal fluids were collected and analyzed for leukotriene levels. Test compounds were administered by gavage one hour prior to the antigen challenge. Percent inhibition values were determined by comparing the treatment group to the mean of the control group.

5-lipoxygenase = settings: cited from earlier work

Row | SMILES | IC50 [1] | inhibition in vivo at 200 µmol/kg (leukotriene biosynthesis) | 5-lipoxygenase inhibition (5-lipoxygenase)
1 | CC(c1ccc(OCc2ccccc2)cc1)N(O)C(N)=O (centres unmarked) [Example 1, N-hydroxy-N-(1(4-phenylmethoxyphenyl)ethyl)urea] | 0.43 µM | 58% | –
2 | CC(c1ccc(Br)cc1)N(O)C(N)=O (centres unmarked) [Example 97, N-Hydroxy-N-1-(4-bromophenyl)ethylurea] | 0.2 µM | 94% | –
3 | CC(c1ccc(Br)cc1)N(O)C(=O)NCCO (centres unmarked) [Example 99, N-Hydroxy-N-1-(4-bromophenyl)ethyl-N'-(2-hydroxyethyl)-urea] | 0.3 µM | 84% | –
4 | CC(c1ccc(-c2ccccc2)s1)N(O)C(N)=O (centres unmarked) [Example 56, N-hydroxy-N-(1-(5-phenylthien-2-yl)ethyl)urea] | 0.4 µM | 89% | –
5 | CCC(c1ccc(Br)cc1)N(O)C(=O)NC (centres unmarked) [Example 103, N-Hydroxy-N-(1-(4-bromophenyl)propyl)-N'-methylurea] | – | 88% | –
6 | CC(c1ccc2ccccc2c1)N(O)C(N)=O (centres unmarked) [Example 9, N-hydroxy-N-(1-(2-naphthyl)ethyl) urea] | – | 69% | –
7 | COc1cc(C(C)N(O)C(N)=O)cc(OC)c1OCc1ccccc1 (centres unmarked) [Example 7, N-hydroxy-N-(1-(4-phenylmethoxy-3,5-dimethoxyphenyl)ethyl) urea] | 1.4 µM | 88% | –
8 | CNC(=O)N(O)Cc1cccs1 [Example 50, N-hydroxy-N-(thien-2-yl)methyl-N'-methyl urea] | 6.7 µM | 90% | –
9 | Cc1cc(C(C)N(O)C(N)=O)c(C)s1 (centres unmarked) [Example 42, N-Hydroxy-N-1-(2,5-dimethylthien-3-yl)ethyl urea] | 1.5 µM | 64% | –
10 | CC(c1ccsc1)N(O)C(N)=O (centres unmarked) [Example 43, N-Hydroxy-N-1-(thien-3-yl)ethyl urea] | 3.5 µM | 66% | –
11 | Cc1ccc(C(C)N(O)C(N)=O)s1 (centres unmarked) [Example 12, N-Hydroxy-N-1-(5-methylthien-2-yl)ethyl urea] | 0.53 µM | 94% | –
12 | NC(=O)N(O)Cc1ccc(OCc2ccccc2)cc1 [Example 5, N-hydroxy-N-(4-phenylmethoxyphenylmethyl) urea] | 0.61 µM | 74% | –
13 | CC(c1cccs1)N(O)C(N)=O (centres unmarked) [Example 47, N-hydroxy-N-(1-thien-2-yl)ethyl urea] | 3.7 µM | 94% | –
14 | Cc1ccc(CN(O)C(N)=O)s1 [Example 51, N-hydroxy-N-(5-methylthien-2-yl)methyl urea] | 0.2 µM | 94% | –
15 | CC(c1ccc(C(F)(F)F)cc1)N(O)C(N)=O (centres unmarked) [Example 111, N-Hydroxy-N-(1-(4-trifluoromethylphenyl)ethyl) urea] | – | 97% | –
16 | NC(=O)N(O)Cc1ccsc1 [Example 44, N-Hydroxy-N-(thien-3-yl)methyl urea] | 4.9 µM | 87% | –
17 | Cc1ccc(C(C)N(O)C(N)=O)cc1 (centres unmarked) [Example 113, N-Hydroxy-N-(1-(4-methylphenyl)ethyl) urea] | 0.3 µM | 94% | –
18 | O=C(O)c1cc(/N=N/c2ccc(S(=O)(=O)Nc3ccccn3)cc2)ccc1O [sulfasalazine] | – | – | weak 5-lipoxygenase inhibitor
19 | CC(c1ccc(F)cc1)N(O)C(N)=O (centres unmarked) [Example 109, N-Hydroxy-N-(1-(4-fluorophenyl)ethyl) urea] | 1.8 µM | 98% | –
20 | CNC(=O)N(O)Cc1ccc(Br)cc1 [Example 101, N-Hydroxy-N-4-bromobenzyl-N'-methyl urea] | 0.3 µM | 93% | –
21 | NC(=O)N(O)Cc1cccs1 [Example 45, N-hydroxy-N-(thien-2-yl)methyl urea] | 6.8 µM | 97% | –
22 | CC(c1ccc(OCc2ccccc2)cc1)N(O)C(=O)N(C)C (centres unmarked) [Example 3] | 0.68 µM | – | –

Row | SMILES | IC50 [1] | inhibition in vivo at 200 µmol/kg (leukotriene biosynthesis) | 5-lipoxygenase inhibition (5-lipoxygenase)
23 | CNC(=O)N(O)C(C)c1ccc(OCc2ccccc2)cc1 (centres unmarked) [Example 2, N-hydroxy-N-1-(4-phenylmethoxyphenyl) ethyl N'-methyl urea] | 0.37 µM | – | –
24 | Cc1ccsc1CN(O)C(N)=O [Example 49, N-hydroxy-N-(3-methylthien-2-yl)methyl urea] | – | 94% | –
25 | CC(c1ccc(OCc2ccccc2)cc1)N(O)C(=O)NO (centres unmarked) [Example 4] | 0.5 µM | 63% | –
26 | NC(=O)N(O)Cc1ccc(Br)s1 [Example 130, N-hydroxy-N-(5-bromothien-2-yl)methyl urea] | 0.9 µM | – | –
27 | NC(=O)N(O)Cc1sccc1Sc1ccccn1 [Example 145, N-hydroxy-N-[3-(2-pyridylthio)thien-2-yl]methyl urea] | 1.5 µM | – | –
28 | NC(=O)N(O)Cc1cccc(Oc2ccccc2)c1 [Example 125] | 0.4 µM | – | –
29 | NC(=O)N(O)Cc1csc(Sc2ccccc2)c1 [Example 137, N-hydroxy-N-[5-(phenylthio)thien-3-yl]methyl urea] | 0.4 µM | – | –
30 | NC(=O)N(O)CC=Cc1ccsc1 [Example 68, N-hydroxy-N-(3-(1-thien-3-yl)propenyl) urea] | 1.9 µM | 93% | –
31 | CC(c1ccc(-c2ccccc2)cc1)N(O)C(N)=O (centres unmarked) [Example 120, N-Hydroxy-N-(1-(4-biphenyl)ethyl) urea] | – | 77% | –
32 | CC(C)(C)Sc1ccc(/C=C/CN(O)C(N)=O)s1 [Example 154, N-hydroxy-N-3-[5-(tertbutylthio)thien-2-yl]propenyl urea] | 0.2 µM | – | –
33 | CCOC(=O)CNC(=O)N(O)C(C)c1cc(C)sc1C (centres unmarked) [Example 59] | 0.99 µM | – | –
34 | CC(c1ccc(Br)s1)N(O)C(N)=O (centres unmarked) [Example 133, N-hydroxy-N-[1-(5-bromothien-2-yl)ethyl]urea] | 0.9 µM | – | –
35 | NC(=O)N(O)Cc1ccc(Sc2ccccc2)s1 [Example 135, N-hydroxy-N-[5-(phenylthio)thien-2-yl]methyl urea] | 0.2 µM | – | –
36 | NC(=O)N(O)Cc1ccc(-c2ccccn2)s1 [Example 55, N-hydroxy-N-(1-(5-(pyrid-2-yl)thien-2-yl)methyl) urea] | 2.1 µM | 71% | –
37 | NC(=O)N(O)Cc1ccc(Br)cc1 [Example 100, N-Hydroxy-N-4-bromobenzylurea] | 0.8 µM | 95% | –
38 | CC(c1cc(Br)cs1)N(O)C(N)=O (centres unmarked) [Example 132, N-hydroxy-N-[1-(4-bromothien-2-yl)ethyl]urea] | 0.9 µM | – | –
39 | CCOC(=O)CNC(=O)N(O)C(C)c1ccsc1 (centres unmarked) [Example 62] | 4.2 µM | – | –
40 | CC(c1ccc(Cl)cc1)N(O)C(N)=O (centres unmarked) [Example 107, N-Hydroxy-N-(1-(4-chlorophenyl)ethyl) urea] | 0.6 µM | 99% | –
41 | Cc1cc(C(C)N(O)C(N)=O)ccc1Cl (centres unmarked) [Example 123, N-Hydroxy-N-(1-(4-chloro-3-methylphenyl)ethyl) urea] | 0.5 µM | – | –
42 | CCC(c1ccc(Br)cc1)N(O)C(N)=O (centres unmarked) [Example 102, N-Hydroxy-N-(1-(4-bromophenyl)propyl) urea] | – | 85% | –
43 | NC(=O)N(O)Cc1sccc1Sc1ccc(F)cc1 [Example 143, N-hydroxy-N-[3-(4-fluorophenylthio)thien-2-yl]methyl urea] | 0.3 µM | – | –
